{"source": "patent US20200068890A1", "about": "(Person to Whom the Inventor is Obligated to Assign, priority 2017, published 2020)", "key": {"[1]": {"tested_on": "Acinetobacter baumannii 17978", "test": "Broth microdilution MIC", "format": "cell-based", "description": "(§1) Assays were carried out by a broth microdilution method using a 96-well plate according to guidelines defined by the European Committee on Antimicrobial Susceptibility Testing as described here. Overnight cultures of strains were grown in tryptic soy broth (TSB) at 37° C. The overnight cultures were diluted to a concentration of 1×10^6 bacteria/ml (OD600=0.01) in TSB media. To each well on 96 well plates, 100 μl of bacterially infected media at a concentration of 1×10^6/ml and compounds at various concentrations were added. An uninfected control (i.e. no bacteria) was also included. The plates were incubated at 37° C. wrapped in parafilm for 20 hrs. The growth was assessed by measuring the absorbance at 600 nm. The minimum inhibitory concentration (MIC) was determined to be the lowest concentration of compound that inhibits visible bacterial growth."}, "EMRSA-15": {"tested_on": "EMRSA-15", "test": "Broth microdilution MIC", "format": "cell-based", "description": "as §1"}, "[2]": {"tested_on": "Enterococcus faecalis 12201", "test": "Broth microdilution MIC", "format": "cell-based", "description": "as §1"}, "[3]": {"tested_on": "Enterococcus faecium 12204", "test": "Broth microdilution MIC", "format": "cell-based", "description": "as §1"}, "[4]": {"tested_on": "Escherichia coli NCTC12923", "test": "Broth microdilution MIC", "format": "cell-based", "description": "as §1"}, "[5]": {"tested_on": "Pseudomonas aeruginosa PA01", "test": "Broth microdilution MIC", "format": "cell-based", "description": "as §1"}, "[6]": {"tested_on": "Gram-positive and Gram-negative bacterial species", "test": "Broth microdilution MIC, panel summary", "format": "cell-based", "details": "read-out: MIC values", "description": "as §1"}, "A. thaliana seedlings": {"tested_on": "A. thaliana seedlings", "test": "In planta seedling development and root length on GM/MS media", "format": "in vivo", "details": "for Normalised root / Root Length: individual plants 1-20", "description": "Gamborg modified/Murashige Skoog (GM/MS) media and soil were prepared as according to Table 6.\nA. thaliana seeds were sterilised including a 15 min wash step in 10% (v/v) commercial bleach without the addition of detergents. All plants were grown in a controlled environment room (CER) at 22±5° C. with 16 hrs: 8 hrs light: dark, 50-60% humidity under cool-white fluorescent light. Plants grown on soil were regularly watered and relocated within the CER.\nBasta was employed as a positive control at a final recommended concentration of 10 μg/mL (50 μM). Negative controls included 0% (v/v) DMSO (H2O) and 1% (v/v) DMSO (vehicle). Media was poured into 100 mL plates and allowed to set before adding 20 sterilised seeds per plate. Seeds were then stratified at 4° C. for 72 hrs in a dark room prior to relocation into a CER.\nThe resulting growth plates were monitored daily and allowed to grow in an upright position for up to 14 days post stratification to determine the average root length using ImageJ analysis. Experiments were carried out in triplicates. Results were statistically validated using t-tests employing GraphPad Prism."}}, "note": "Where “and” joins values, the source holds several entries; their conditions need not be identical. Equal entries are not always repeated. Where two headings read alike, the source gives them in different places.", "data": [{"compound": "COc1ccccc1/C=C1\\SC(=O)N(CC(=O)O)C1=O", "note": "[Compound 3, (Z)-2-(5-(2-Methoxybenzylidene)-2,4-dioxothiazolidin-3-yl)acetic Acid]", "values": [{"measurement": "MIC", "setting": "[1]; Acinetobacter baumannii 17978, replicate 1, read-out: MIC #1", "value": "> 64", "unit": "µg/mL"}, {"measurement": "MIC", "setting": "[1]; Acinetobacter baumannii 17978, replicate 2, read-out: MIC #2", "value": "> 64", "unit": "µg/mL"}, {"measurement": "MIC", "setting": "[1]; Acinetobacter baumannii 17978, replicate 3, read-out: MIC #3", "value": "> 64", "unit": "µg/mL"}, {"measurement": "MIC", "setting": "EMRSA-15; EMRSA-15, replicate 1, read-out: MIC #1", "value": "> 64", "unit": "µg/mL"}, {"measurement": "MIC", "setting": "EMRSA-15; EMRSA-15, replicate 2, read-out: MIC #2", "value": "> 64", "unit": "µg/mL"}, {"measurement": "MIC", "setting": "EMRSA-15; EMRSA-15, replicate 3, read-out: MIC #3", "value": "> 64", "unit": "µg/mL"}, {"measurement": "MIC", "setting": "[2]; Enterococcus faecalis 12201, replicate 1, read-out: MIC #1", "value": "> 64", "unit": "µg/mL"}, {"measurement": "MIC", "setting": "[2]; Enterococcus faecalis 12201, replicate 2, read-out: MIC #2", "value": "> 64", "unit": "µg/mL"}, {"measurement": "MIC", "setting": "[2]; Enterococcus faecalis 12201, replicate 3, read-out: MIC #3", "value": "> 64", "unit": "µg/mL"}, {"measurement": "MIC", "setting": "[3]; Enterococcus faecium 12204, replicate 1, read-out: MIC #1", "value": "> 64", "unit": "µg/mL"}, {"measurement": "MIC", "setting": "[3]; Enterococcus faecium 12204, replicate 2, read-out: MIC #2", "value": "> 64", "unit": "µg/mL"}, {"measurement": "MIC", "setting": "[3]; Enterococcus faecium 12204, replicate 3, read-out: MIC #3", "value": "> 64", "unit": "µg/mL"}, {"measurement": "MIC", "setting": "[4]; Escherichia coli NCTC12923, replicate 1, read-out: MIC #1", "value": "> 64", "unit": "µg/mL"}, {"measurement": "MIC", "setting": "[4]; Escherichia coli NCTC12923, replicate 2, read-out: MIC #2", "value": "> 64", "unit": "µg/mL"}, {"measurement": "MIC", "setting": "[4]; Escherichia coli NCTC12923, replicate 3, read-out: MIC #3", "value": "> 64", "unit": "µg/mL"}, {"measurement": "MIC", "setting": "[5]; Pseudomonas aeruginosa PA01, replicate 1, read-out: MIC #1", "value": "> 64", "unit": "µg/mL"}, {"measurement": "MIC", "setting": "[5]; Pseudomonas aeruginosa PA01, replicate 2, read-out: MIC #2", "value": "> 64", "unit": "µg/mL"}, {"measurement": "MIC", "setting": "[5]; Pseudomonas aeruginosa PA01, replicate 3, read-out: MIC #3", "value": "> 64", "unit": "µg/mL"}, {"measurement": "MIC", "setting": "[6]", "value": "> 64", "unit": "µg/mL"}, {"measurement": "Normalised root", "setting": "A. thaliana seedlings; 15.6 μM in GM/MS media", "value": "126.8 and 79.33 and 8.429 and 111.7 and 109.2 and 119.2 and 125.6 and 130.3 and 102.2 and 104.4 and 74.72 and 87.31 and 77.74 and 72.45 and 127.9 and 91.64 and 101.7 and 3.856 and 113.4 and 59.09"}, {"measurement": "Root Length", "setting": "A. thaliana seedlings; 15.6 μM in GM/MS media", "value": "4.242 cm and 2.654 cm and 0.282 cm and 3.737 cm and 3.653 cm and 3.988 cm and 4.202 cm and 4.361 cm and 3.42 cm and 3.494 cm and 2.5 cm and 2.921 cm and 2.601 cm and 2.424 cm and 4.28 cm and 3.066 cm and 3.403 cm and 0.129 cm and 3.794 cm and 1.977 cm"}, {"measurement": "Normalised root", "setting": "A. thaliana seedlings; 31.3 μM in GM/MS media", "value": "70.03 and 65.16 and 32.16 and 67.4 and 20.77 and 47.64"}, {"measurement": "Root Length", "setting": "A. thaliana seedlings; 31.3 μM in GM/MS media", "value": "2.343 cm and 2.18 cm and 1.076 cm and 2.255 cm and 0.695 cm and 1.594 cm"}, {"measurement": "Normalised root", "setting": "A. thaliana seedlings; 62.5 μM in GM/MS media", "value": "64.32 and 82.41 and 69.91 and 82.88 and 64.47 and 34.82 and 79.21 and 80.49 and 78.28 and 63.37 and 57.96 and 45.82 and 15.99 and 51.14 and 20.03 and 32.64"}, {"measurement": "Root Length", "setting": "A. thaliana seedlings; 62.5 μM in GM/MS media", "value": "2.152 cm and 2.757 cm and 2.339 cm and 2.773 cm and 2.157 cm and 1.165 cm and 2.65 cm and 2.693 cm and 2.619 cm and 2.12 cm and 1.939 cm and 1.533 cm and 0.535 cm and 1.711 cm and 0.67 cm and 1.092 cm"}, {"measurement": "Normalised root", "setting": "A. thaliana seedlings; 125 μM in GM/MS media", "value": "33.06 and 69.91 and 19.58 and 22.27 and 3.796 and 61.99 and 8.578 and 23.43 and 41.58 and 46.33 and 18.05 and 12.76 and 7.532 and 1.225 and 12.64 and 3.945 and 21.19 and 14.91 and 8.907 and 2.032"}, {"measurement": "Root Length", "setting": "A. thaliana seedlings; 125 μM in GM/MS media", "value": "1.106 cm and 2.339 cm and 0.655 cm and 0.745 cm and 0.127 cm and 2.074 cm and 0.287 cm and 0.784 cm and 1.391 cm and 1.55 cm and 0.604 cm and 0.427 cm and 0.252 cm and 0.041 cm and 0.423 cm and 0.132 cm and 0.709 cm and 0.499 cm and 0.298 cm and 0.068 cm"}, {"measurement": "Normalised root", "setting": "A. thaliana seedlings; 250 μM in GM/MS media", "value": "18.35 and 35.03 and 19.34 and 7.741 and 3.318 and 12.7 and 3.049 and 7.532 and 27.32 and 17.58 and 13.9 and 3.916 and 9.923 and 8.07 and 5.619 and 3.497 and 4.513 and 2.66 and 3.378 and 3.676"}, {"measurement": "Root Length", "setting": "A. thaliana seedlings; 250 μM in GM/MS media", "value": "0.614 cm and 1.172 cm and 0.647 cm and 0.259 cm and 0.111 cm and 0.425 cm and 0.102 cm and 0.252 cm and 0.914 cm and 0.588 cm and 0.465 cm and 0.131 cm and 0.332 cm and 0.27 cm and 0.188 cm and 0.117 cm and 0.151 cm and 0.089 cm and 0.113 cm and 0.123 cm"}, {"measurement": "Normalised root", "setting": "A. thaliana seedlings; 500 μM in GM/MS media", "value": "2.75 and 4.065 and 1.674 (2×) and 1.644 and 1.315 and 2.331 (2×) and 0.7472 and 2.272 and 2.062 and 1.076 and 1.435 and 2.63 and 2.092 and 1.584 and 5.021 and 1.375"}, {"measurement": "Root Length", "setting": "A. thaliana seedlings; 500 μM in GM/MS media", "value": "0.092 cm and 0.136 cm and 0.056 cm (2×) and 0.055 cm and 0.044 cm and 0.078 cm (2×) and 0.025 cm and 0.076 cm and 0.069 cm and 0.036 cm and 0.048 cm and 0.088 cm and 0.07 cm and 0.053 cm and 0.168 cm and 0.046 cm"}, {"measurement": "seedling development", "setting": "A. thaliana seedlings; concentrations 125 μM and higher", "value": "did not develop past the point of hypocotyl formation"}, {"measurement": "development and growth of A. thaliana (leaves)", "setting": "A. thaliana seedlings; highest concentrations tested", "value": "lack of any chlorophyll containing leaves"}]}]}
